Laboratory results from PubChem BioAssay (NCI).
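Cultured in 96-well plates, cells were exposed to test compound for 48 hours across five concentrations. TGI denotes the concentration required for complete inhibition of growth.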

Legend:
Test in all cases: DTP human tumour cell line panel, 48 h
786-0 renal = system: 786-0 renal
A498 renal = system: A498 renal
A549 NSCLC = system: A549 NSCLC
ACHN renal = system: ACHN renal
CAKI-1 renal = system: CAKI-1 renal
CCRF-CEM leukemia = system: CCRF-CEM leukemia
COLO 205 colon = system: COLO 205 colon
DLD-1 colon = system: DLD-1 colon
DMS 114 small cell lung = system: DMS 114 small cell lung
DMS 273 small cell lung = system: DMS 273 small cell lung
EKVX NSCLC = system: EKVX NSCLC
HCC-2998 colon = system: HCC-2998 colon
HCT-116 colon = system: HCT-116 colon
HCT-15 colon = system: HCT-15 colon
HOP-18 NSCLC = system: HOP-18 NSCLC
HOP-62 NSCLC = system: HOP-62 NSCLC
HOP-92 NSCLC = system: HOP-92 NSCLC
HT29 colon = system: HT29 colon
IGROV1 ovarian = system: IGROV1 ovarian
K-562 leukemia = system: K-562 leukemia
KM12 colon = system: KM12 colon
KM20L2 colon = system: KM20L2 colon
LOX IMVI melanoma = system: LOX IMVI melanoma
M14 melanoma = system: M14 melanoma
M19-MEL melanoma = system: M19-MEL melanoma
MALME-3M melanoma = system: MALME-3M melanoma
NCI-H226 lung = system: NCI-H226 lung
NCI-H23 lung = system: NCI-H23 lung
NCI-H460 lung = system: NCI-H460 lung
OVCAR-3 ovarian = system: OVCAR-3 ovarian
OVCAR-4 ovarian = system: OVCAR-4 ovarian
OVCAR-5 ovarian = system: OVCAR-5 ovarian
OVCAR-8 ovarian = system: OVCAR-8 ovarian
RPMI-8226 leukemia = system: RPMI-8226 leukemia
SF-268 CNS = system: SF-268 CNS
SF-295 CNS = system: SF-295 CNS
SF-539 CNS = system: SF-539 CNS
SK-MEL-2 melanoma = system: SK-MEL-2 melanoma
SK-MEL-28 melanoma = system: SK-MEL-28 melanoma
SK-MEL-5 melanoma = system: SK-MEL-5 melanoma
SK-OV-3 ovarian = system: SK-OV-3 ovarian
SN12C renal = system: SN12C renal
SNB-19 CNS = system: SNB-19 CNS
SNB-75 CNS = system: SNB-75 CNS
SNB-78 CNS = system: SNB-78 CNS
SW-620 colon = system: SW-620 colon
TK-10 renal = system: TK-10 renal
U251 CNS = system: U251 CNS
UACC-257 melanoma = system: UACC-257 melanoma
UACC-62 melanoma = system: UACC-62 melanoma
UO-31 renal = system: UO-31 renal
XF 498 CNS = system: XF 498 CNS
HL-60(TB) leukemia = system: HL-60(TB) leukemia
LXFL 529 NSCLC = system: LXFL 529 NSCLC
MOLT-4 leukemia = system: MOLT-4 leukemia
NCI-H522 lung = system: NCI-H522 lung
RXF 393 renal = system: RXF 393 renal

Measured: TGI

COCN1COCN(C)C1=O
> 100 µM: 786-0 renal | A498 renal | A549 NSCLC | ACHN renal | CAKI-1 renal | CCRF-CEM leukemia | COLO 205 colon | DLD-1 colon | DMS 114 small cell lung | DMS 273 small cell lung | EKVX NSCLC | HCC-2998 colon | HCT-116 colon | HCT-15 colon | HOP-18 NSCLC | HOP-62 NSCLC | HOP-92 NSCLC | HT29 colon | IGROV1 ovarian | K-562 leukemia | KM12 colon | KM20L2 colon | LOX IMVI melanoma | M14 melanoma | M19-MEL melanoma | MALME-3M melanoma | NCI-H226 lung | NCI-H23 lung | NCI-H460 lung | OVCAR-3 ovarian | OVCAR-4 ovarian | OVCAR-5 ovarian | OVCAR-8 ovarian | RPMI-8226 leukemia | SF-268 CNS | SF-295 CNS | SF-539 CNS | SK-MEL-2 melanoma | SK-MEL-28 melanoma | SK-MEL-5 melanoma | SK-OV-3 ovarian | SN12C renal | SNB-19 CNS | SNB-75 CNS | SNB-78 CNS | SW-620 colon | TK-10 renal | U251 CNS | UACC-257 melanoma | UACC-62 melanoma | UO-31 renal | XF 498 CNS

CCC1(CC)C(=O)NC(=O)NC1=S
> 100 µM: 786-0 renal | A498 renal | A549 NSCLC | ACHN renal | CCRF-CEM leukemia | COLO 205 colon | DLD-1 colon | DMS 114 small cell lung | DMS 273 small cell lung | EKVX NSCLC | HCT-116 colon | HCT-15 colon | HL-60(TB) leukemia | HOP-18 NSCLC | HOP-62 NSCLC | HOP-92 NSCLC | HT29 colon | IGROV1 ovarian | K-562 leukemia | KM20L2 colon | LOX IMVI melanoma | LXFL 529 NSCLC | M14 melanoma | M19-MEL melanoma | MALME-3M melanoma | MOLT-4 leukemia | NCI-H226 lung | NCI-H23 lung | NCI-H460 lung | NCI-H522 lung | OVCAR-3 ovarian | OVCAR-4 ovarian | OVCAR-5 ovarian | OVCAR-8 ovarian | RPMI-8226 leukemia | RXF 393 renal | SF-268 CNS | SF-295 CNS | SF-539 CNS | SK-MEL-2 melanoma | SK-MEL-28 melanoma | SK-OV-3 ovarian | SN12C renal | SNB-19 CNS | SNB-75 CNS | SNB-78 CNS | SW-620 colon | TK-10 renal | U251 CNS | UACC-257 melanoma | UACC-62 melanoma | UO-31 renal
